According to patent US20070135499A1 (Aerie Pharmaceuticals, Inc., priority 2005, published 2007):
pKi: −log10 of the molar value.

Legend:
[1] = tested on: porcine trabecular meshwork (PTM) cells; assay: Cell-based porcine trabecular meshwork (PTM) assay, actin-fiber length; parameters: key: +++: More active than control-; ++: As active as control; +: Less active than control; −: Inactive; conditions: activity at 50 μM as compared to control
Procedure: Cell-based porcine trabecular meshwork (PTM) assay.
The anterior section of porcine eyes was harvested within 4 hours post-mortem. The iris and ciliary body were removed and trabecular meshwork cells were harvested by blunt dissection. Finely minced trabecular meshwork tissue was plated into collagen-coated 6-well plates in Medium-199 containing 20% fetal bovine serum (FBS). After two passages at confluence, cells were transferred to low-glucose DMEM containing 10% FBS. Cells were used between […].
Cells were plated into fibronectin-coated, glass multiwell plates the day before compound testing under standard culture conditions. Compounds were added to cells in the presence of 1% FBS-containing DMEM and 1% DMSO. When compounds were incubated with the cells for the duration determined to be optimal, the media and compound is removed and cells fixed for 20 minutes in 3% methanol-free paraformaldehyde. Cells were rinsed twice with phosphate buffered saline (PBS) and cells are permeabilized with 0.5% Triton X-100 for two minutes. Following an additional two washes with PBS, F-actin was stained with Alexa-fluor 488-labelled phalloidin and nuclei are stained with DAPI.
Data was reduced to the mean straight actin-fiber length and normalized to DMSO-treated control cells (100%) and 50 μM Y-27632 (0%). Y-27632 is a rho-kinase inhibitor known to result in the depolymerization of F-actin in these cells.
The cellular assay described in Reference Example Two was used to test some of the foregoing Examples 1-101, the results of which are presented below. The results are provided in terms activity at 50 μM as compared to control

GRK-6 = GRK-6 (Homo sapiens, UniProt P43250); assay: luciferase-based biochemical kinase inhibition assay, GRK-6; conditions: same luciferase assay; read-out: GRK-6 inhibition, Ki class
Sequence of GRK-6 (P43250 whole entry, species assumed): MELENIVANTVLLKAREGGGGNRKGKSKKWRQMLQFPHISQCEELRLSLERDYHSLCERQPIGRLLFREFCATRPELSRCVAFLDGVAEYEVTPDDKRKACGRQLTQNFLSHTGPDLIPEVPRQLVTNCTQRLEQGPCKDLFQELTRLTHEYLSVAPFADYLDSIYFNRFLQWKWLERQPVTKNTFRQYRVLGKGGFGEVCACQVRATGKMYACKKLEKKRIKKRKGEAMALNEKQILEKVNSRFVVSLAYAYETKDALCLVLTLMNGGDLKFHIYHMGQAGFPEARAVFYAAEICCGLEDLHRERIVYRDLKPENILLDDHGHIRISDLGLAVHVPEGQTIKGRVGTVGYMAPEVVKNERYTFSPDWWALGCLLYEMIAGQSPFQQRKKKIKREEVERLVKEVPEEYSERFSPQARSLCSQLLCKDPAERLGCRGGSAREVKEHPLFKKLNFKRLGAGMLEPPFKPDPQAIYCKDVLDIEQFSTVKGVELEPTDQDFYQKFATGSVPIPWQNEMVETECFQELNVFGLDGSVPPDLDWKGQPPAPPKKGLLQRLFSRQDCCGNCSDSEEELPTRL
Procedure: (§1) The inhibition of G-protein-coupled receptor kinases including hGRK-2 was determined for the hydrazide compounds using a biochemical assay. The inhibition of GRK-3, GRK-5 and GRK-6 was also determined using the same assay for some of the hydrazide derivatives.
(§2) The protein kinase inhibition was determined using a biochemical assay utilizing the light emission of a luciferase reaction. The luciferase-based assay operates on the following reaction principles: [drawing 10]
(§3) An inhibitor of GRK-2 will increase in the amount of ATP in solution, as shown. Thus, an inhibitor of GRK-2 will drive the luciferase reaction to the right, resulting in more light emitted. The amount of light emitted is proportional to the inhibition resulting from the GRK-2 inhibitor. The luciferase-based assay was also used to test some of the hydrazides for the inhibition properties towards other kinases.

GRK-5 = GRK-5 (Homo sapiens, UniProt P34947); assay: luciferase-based biochemical kinase inhibition assay, GRK-5; conditions: same luciferase assay; read-out: GRK-5 inhibition, Ki class
Sequence of GRK-5 (P34947 whole entry, species assumed): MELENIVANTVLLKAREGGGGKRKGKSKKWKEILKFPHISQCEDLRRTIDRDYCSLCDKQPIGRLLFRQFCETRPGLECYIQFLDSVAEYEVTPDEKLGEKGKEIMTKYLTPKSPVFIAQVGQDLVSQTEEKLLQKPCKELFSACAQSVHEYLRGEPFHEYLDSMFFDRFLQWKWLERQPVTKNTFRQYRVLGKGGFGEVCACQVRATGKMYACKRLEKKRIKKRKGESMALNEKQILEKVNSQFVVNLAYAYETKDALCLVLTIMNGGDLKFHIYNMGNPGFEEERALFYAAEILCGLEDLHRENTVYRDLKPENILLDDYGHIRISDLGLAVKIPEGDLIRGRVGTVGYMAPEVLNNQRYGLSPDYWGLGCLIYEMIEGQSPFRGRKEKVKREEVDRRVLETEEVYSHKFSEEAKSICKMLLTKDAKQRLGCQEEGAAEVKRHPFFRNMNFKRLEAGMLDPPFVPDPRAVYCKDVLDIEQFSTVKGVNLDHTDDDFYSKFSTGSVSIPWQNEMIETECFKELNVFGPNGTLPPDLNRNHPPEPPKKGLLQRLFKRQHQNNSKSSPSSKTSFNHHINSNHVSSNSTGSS
Procedure: The inhibition of G-protein-coupled receptor kinases including hGRK-2 was determined for the hydrazide compounds using a biochemical assay. […] The inhibition of GRK-3, GRK-5 and GRK-6 was also determined using the same assay for some of the hydrazide derivatives.
as §2, §3

hGRK-2 = molecular target: T1, hGRK-2 (Homo sapiens, UniProt P25098); assay: luciferase-based (Kinase-Glo) biochemical kinase inhibition assay, hGRK-2; conditions: luciferase assay, casein substrate, 10 μM ATP; read-out: GRK-2 inhibition, Ki class
T1 sequence (P25098 1-689): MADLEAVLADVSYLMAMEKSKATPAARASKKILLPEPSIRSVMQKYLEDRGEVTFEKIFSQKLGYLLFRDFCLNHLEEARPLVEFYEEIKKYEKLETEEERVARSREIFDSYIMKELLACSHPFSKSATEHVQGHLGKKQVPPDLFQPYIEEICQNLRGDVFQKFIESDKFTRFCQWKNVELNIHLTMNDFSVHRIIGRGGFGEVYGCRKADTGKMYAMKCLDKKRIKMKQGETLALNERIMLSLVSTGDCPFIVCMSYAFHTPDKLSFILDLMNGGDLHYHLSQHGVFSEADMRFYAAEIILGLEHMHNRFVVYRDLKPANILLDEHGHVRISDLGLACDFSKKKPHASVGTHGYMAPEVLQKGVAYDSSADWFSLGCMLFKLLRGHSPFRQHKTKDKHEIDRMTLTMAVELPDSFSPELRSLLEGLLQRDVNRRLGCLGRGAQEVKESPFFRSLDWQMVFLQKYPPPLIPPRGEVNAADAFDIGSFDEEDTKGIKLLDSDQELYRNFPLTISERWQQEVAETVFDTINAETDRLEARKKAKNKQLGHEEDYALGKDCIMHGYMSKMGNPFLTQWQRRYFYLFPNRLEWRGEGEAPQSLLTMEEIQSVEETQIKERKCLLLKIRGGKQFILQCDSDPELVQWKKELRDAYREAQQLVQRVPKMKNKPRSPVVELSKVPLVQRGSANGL
Outline: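 Final conditions: 50 nM hGRK2, 20 μM casein, 10 μM ATP and 50 μM test compound in 4.5% DMSO, in HEPES pH 7.5 buffer with MgCl2, orthovanadate, CHAPS, BSA and DTT. Incubation ran 90-120 min at room temperature, targeting 20-30% ATP consumption. Remaining ATP was read by luminescence with diluted Kinase-Glo containing 0.01% trypan blue.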

GRK-3 = molecular target: T2, GRK-3 (Homo sapiens, UniProt P35626); assay: luciferase-based biochemical kinase inhibition assay, GRK-3; conditions: same luciferase assay; read-out: GRK-3 inhibition, Ki class
T2 sequence (P35626 1-688): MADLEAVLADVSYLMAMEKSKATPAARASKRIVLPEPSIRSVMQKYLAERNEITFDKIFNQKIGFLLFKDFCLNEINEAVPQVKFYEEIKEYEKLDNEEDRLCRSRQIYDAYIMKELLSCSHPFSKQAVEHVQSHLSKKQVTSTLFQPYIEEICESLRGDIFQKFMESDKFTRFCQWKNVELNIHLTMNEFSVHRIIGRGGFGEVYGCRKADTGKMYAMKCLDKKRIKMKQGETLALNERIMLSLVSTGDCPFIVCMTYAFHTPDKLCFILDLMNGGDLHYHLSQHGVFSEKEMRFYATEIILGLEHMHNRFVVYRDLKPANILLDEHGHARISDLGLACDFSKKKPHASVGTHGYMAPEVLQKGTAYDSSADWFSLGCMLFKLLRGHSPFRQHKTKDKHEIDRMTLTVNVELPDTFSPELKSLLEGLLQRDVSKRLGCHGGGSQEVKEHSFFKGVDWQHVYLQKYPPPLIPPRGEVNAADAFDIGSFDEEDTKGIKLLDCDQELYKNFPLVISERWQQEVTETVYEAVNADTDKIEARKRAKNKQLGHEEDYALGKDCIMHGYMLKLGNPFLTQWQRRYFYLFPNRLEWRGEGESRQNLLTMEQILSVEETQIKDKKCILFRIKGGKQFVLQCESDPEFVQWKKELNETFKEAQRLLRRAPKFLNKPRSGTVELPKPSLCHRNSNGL
Procedure: as §1, §2, §3

Compound: O=C(CNc1cccc(C(=O)Nc2ccccc2)c1)N/N=C/c1c(Cl)cncc1Cl [drawing 112]
- PTM Cell Assay Result [1]: ++

Compound: CNC(=O)c1cccc(NCC(=O)N/N=C/c2c(Cl)cncc2Cl)c1 [drawing 118]
- PTM Cell Assay Result [1]: +

Compound: O=C(CNc1cccc(C(=O)Nc2ccccc2)c1)N/N=C/c1ccncc1 [drawing 113]
- PTM Cell Assay Result [1]: ++

Compound: O=C(CNc1cccc(Oc2ccccc2)c1)N/N=C/c1ccncc1 [Example 55, (3-Phenoxy-phenylamino)-acetic acid [1-pyridin-4-yl-meth-(E)-ylidene]-hydrazide]
- pKi (GRK-6): < 5.00
- pKi (GRK-5): < 5.00
- pKi (hGRK-2): 6.00 to 7.00
- pKi (GRK-3): 6.00 to 7.00

Compound: C/C(=N\NC(=O)CNc1cccc(C(=O)Nc2ccccc2)c1)c1ccncc1 [drawing 119]
- PTM Cell Assay Result [1]: +

Compound: CNC(=O)c1cccc(NCC(=O)N/N=C/c2c(Cl)cncc2Cl)c1 [Example 13, 3-{[1-(3,5-Dichloro-pyridin-4-yl)-meth-(E)-ylidene-hydrazinocarbonylmethyl]-amino}-N-methyl-benzamide]
- pKi (GRK-6): < 5.00
- pKi (GRK-5): 5.00 to 6.00
- pKi (hGRK-2): 6.00 to 7.00
- pKi (GRK-3): 6.00 to 7.00

Compound: O=C(CNc1cccc(C(=O)NCCN2CCOCC2)c1)N/N=C/c1c(Cl)cncc1Cl [drawing 116]
- PTM Cell Assay Result [1]: +

Compound: COc1cccc(NCC(=O)N/N=C(\C)c2ccncc2)c1 [Example 88, (3-Methoxy-phenylamino)-acetic acid [1-pyridin-4-yl-eth-(E)-ylidene]-hydrazide]
- pKi (GRK-6): < 5.00
- pKi (GRK-5): 5.00 to 6.00
- pKi (hGRK-2): 6.00 to 7.00
- pKi (GRK-3): 6.00 to 7.00

Compound: O=C(CNc1ccc(Oc2ccccc2)cc1)N/N=C/c1c(Cl)cncc1Cl
- PTM Cell Assay Result [1]: +

Compound: COc1cccc(NCC(=O)N/N=C/c2ccncc2)c1 [Example 43, (3-Methoxy-phenylamino)-acetic acid [1-pyridin-4-yl-meth-(E)-ylidene]-hydrazide]
- pKi (GRK-6): < 5.00
- pKi (GRK-5): 5.00 to 6.00
- pKi (hGRK-2): 7.00 to 8.00
- pKi (GRK-3): 7.00 to 8.00

Compound: O=C(CNc1cccc(C(=O)Nc2cccnc2)c1)N/N=C/c1ccncc1 [drawing 114]
- PTM Cell Assay Result [1]: ++

Compound: O=C(CNc1cccc(Cl)c1)N/N=C/c1ccncc1 [Example 37, (3-Chloro-phenylamino)-acetic acid [1-pyridin-4-yl-meth-(E)-ylidene]-hydrazide]
- pKi (GRK-5): < 5.00
- pKi (hGRK-2): 6.00 to 7.00
- pKi (GRK-3): 5.00 to 6.00

Compound: O=C(CNc1cccc(Cl)c1)N/N=C/c1c(Cl)cncc1Cl [Example 1, (3-Chloro-phenylamino)-acetic acid [1-(3,5-dichloro-pyridin-4-yl)-meth-(E)-ylidene]-hydrazide]
- pKi (GRK-5): 5.00 to 6.00
- pKi (hGRK-2): 5.00 to 6.00
- pKi (GRK-3): 5.00 to 6.00

Compound: CNC(=O)c1cccc(NCC(=O)N/N=C/c2ccncc2)c1 [Example 52, N-Methyl-3-{[1-pyridin-4-yl-meth-(E)-ylidene-hydrazinocarbonylmethyl]-amino}-benzamide]
- pKi (GRK-5): < 5.00
- pKi (hGRK-2): 6.00 to 7.00
- pKi (GRK-3): 6.00 to 7.00

Compound: COc1cc(/C=N/NC(=O)CNc2cccc(Cl)c2)nc(OC)n1
- PTM Cell Assay Result [1]: +

Compound: COc1cccc(NCC(=O)N/N=C/c2c(Cl)cncc2Cl)c1 [Example 5, (3-Methoxy-phenylamino)-acetic acid [1-(3,5-dichloro-pyridin-4-yl)-meth-(E)-ylidene]-hydrazide]
- pKi (GRK-6): < 5.00
- pKi (hGRK-2): 7.00 to 8.00
- pKi (GRK-3): 7.00 to 8.00

Compound: C/C(=N\NC(=O)CNc1cccc(Oc2ccccc2)c1)c1ccncc1 [Example 89, (3-Phenoxy-phenylamino)-acetic acid [1-pyridin-4-yl-eth-(E)-ylidene]-hydrazide]
- pKi (GRK-5): < 5.00
- pKi (hGRK-2): 6.00 to 7.00
- pKi (GRK-3): 6.00 to 7.00

Compound: O=C(CNc1cccc(OCc2ccccc2)c1)N/N=C/c1ccncc1 [Example 47, (3-Benzyloxy-phenylamino)-acetic acid [1-pyridin-4-yl-meth-(E)-ylidene]-hydrazide]
- pKi (GRK-5): 5.00 to 6.00
- pKi (hGRK-2): 6.00 to 7.00
- pKi (GRK-3): 6.00 to 7.00

Compound: C/C(=N\NC(=O)CNc1cccc(OCc2ccccc2)c1)c1ccncc1 [Example 87, (3-Benzyloxy-phenylamino)-acetic acid [1-pyridin-4-yl-eth-(E)-ylidene]-hydrazide]
- pKi (GRK-5): < 5.00
- pKi (hGRK-2): 6.00 to 7.00
- pKi (GRK-3): 6.00 to 7.00

Compound: O=C(CNc1cccc(OCc2ccccc2)c1)N/N=C/c1c(Cl)cncc1Cl [Example 9, (3-Benzyloxy-phenylamino)-acetic acid [1-(3,5-dichloro-pyridin-4-yl)-meth-(E)-ylidene]-hydrazide]
- pKi (GRK-6): < 5.00
- pKi (GRK-5): 5.00 to 6.00
- pKi (hGRK-2): 6.00 to 7.00
- pKi (GRK-3): 6.00 to 7.00

Compound: COc1ccc(Oc2cccc(NCC(=O)N/N=C/c3ccncc3)c2)cc1
- PTM Cell Assay Result [1]: +

Compound: O=C(CNc1cccc(Oc2ccccc2)c1)N/N=C/c1c(Cl)cncc1Cl [Example 15, (3-Phenoxy-phenylamino)-acetic acid [1-(3,5-dichloro-pyridin-4-yl)-meth-(E)-ylidene]-hydrazide]
- pKi (GRK-6): < 5.00
- pKi (GRK-5): 5.00 to 6.00
- pKi (hGRK-2): 6.00 to 7.00
- pKi (GRK-3): 6.00 to 7.00

Compound: CSc1cccc(NCC(=O)N/N=C/c2c(Cl)cncc2Cl)c1 [Example 10, (3-Methylsulfanyl-phenylamino)-acetic acid [1-(3,5-dichloro-pyridin-4-yl)-meth-(E)-ylidene]-hydrazide]
- pKi (GRK-5): 5.00 to 6.00
- pKi (hGRK-2): 6.00 to 7.00
- pKi (GRK-3): 6.00 to 7.00

Compound: NS(=O)(=O)c1cccc(NCC(=O)N/N=C/c2c(Cl)cncc2Cl)c1 [Example 22, 3-{[1-(3,5-Dichloro-pyridin-4-yl)-meth-(E)-ylidene-hydrazinocarbonylmethyl]-amino}-benzenesulfonamide]
- pKi (GRK-5): 5.00 to 6.00
- pKi (hGRK-2): 6.00 to 7.00
- pKi (GRK-3): 5.00 to 6.00
